Assay results reported in patent US11702404B2, “GLP-1R modulating compounds” (priority 2019, dated 2023).

Legend:
GLP-1R = GLP-1R (Homo sapiens, UniProt P43220); test: GLP-1R activation: cAMP increase in CHO cells stably expressing GLP-1R; type: cell-based; settings: cAMP increase, CHO cells stably expressing GLP-1R, 10 point dose response, 30 minutes incubation; read-out: EC50
[1] = Microsomal stability, human liver microsomes (predicted hepatic clearance); settings: predicted from in vitro microsomal stability data

Chain of GLP-1R (P43220 24-463): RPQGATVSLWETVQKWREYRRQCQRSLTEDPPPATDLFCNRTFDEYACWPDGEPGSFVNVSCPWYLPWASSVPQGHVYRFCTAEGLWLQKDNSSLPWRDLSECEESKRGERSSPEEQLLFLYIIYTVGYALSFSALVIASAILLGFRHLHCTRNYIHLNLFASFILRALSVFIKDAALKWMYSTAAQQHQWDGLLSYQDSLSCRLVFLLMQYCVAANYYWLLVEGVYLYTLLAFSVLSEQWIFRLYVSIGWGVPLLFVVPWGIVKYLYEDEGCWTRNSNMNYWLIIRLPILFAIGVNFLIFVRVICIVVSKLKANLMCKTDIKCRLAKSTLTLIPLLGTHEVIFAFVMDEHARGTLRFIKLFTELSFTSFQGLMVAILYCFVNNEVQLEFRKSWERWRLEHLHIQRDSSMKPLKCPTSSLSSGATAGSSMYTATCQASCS

SMILES: O=C(O)c1ccc2nc(Cc3cc(F)c(-c4ccnc(OCc5ccc(C(F)F)cc5F)n4)cc3F)n(CC34CC(CO3)C4)c2c1 [Example 671]
- EC50 (GLP-1R): 1.76 nM
- Predicted Hepatic Clearance (Pred. Cl.) [1]: 1.83 mL/min/kg

SMILES: COCCn1c(Cc2ccc(-c3cccc(OCc4cc(F)c(C#N)cc4OC)n3)cc2F)nc2ccc(C(=O)O)cc21 [Example 251, 2-(4-(6-((4-cyano-5-fluoro-2-methoxybenzyl)oxy)pyridin-2-yl)-2-fluorobenzyl)-1-(2-methoxyethyl)-1H-benzo[d]imidazole-6-carboxylic acid]
- EC50 (GLP-1R): 3.13 nM
- Predicted Hepatic Clearance (Pred. Cl.) [1]: <1.83 mL/min/kg

SMILES: COCCn1c(Cc2ccc(-c3ccc(F)c(OCc4ccc(Cl)cc4F)c3)cc2F)nc2ccc(C(=O)O)cc21 [Example 472, 2-((3′-((4-chloro-2-fluorobenzyl)oxy)-3,4′-difluoro-[1,1′-biphenyl]-4-yl)methyl)-1-(2-methoxyethyl)-1H-benzo[d]imidazole-6-carboxylic acid]
- EC50 (GLP-1R): 20.9 nM
- Predicted Hepatic Clearance (Pred. Cl.) [1]: <1.83 mL/min/kg

SMILES: N#Cc1ccc(COc2nc(-c3cc(F)c(Cc4nc5c(F)cc(C(=O)O)cc5n4C[C@@H]4CCO4)cc3F)ccc2F)cn1 [Example 779]
- EC50 (GLP-1R): 0.17 nM
- Predicted Hepatic Clearance (Pred. Cl.) [1]: 1.83 mL/min/kg

SMILES: N#Cc1ccc(COc2cccc(-c3cc(F)c(Cc4nc5ccc(C(=O)O)c(F)c5n4C[C@@H]4CCO4)cc3F)n2)c(F)c1 [Example 632]
- EC50 (GLP-1R): 0.24 nM
- Predicted Hepatic Clearance (Pred. Cl.) [1]: 1.83 mL/min/kg

SMILES: CCn1cncc1Cn1c(Cc2ccc(-c3cccc(OCc4ccc(C#N)cc4F)n3)c(F)c2)nc2ccc(C(=O)O)cc21 [Example 520, 2-(4-(6-((4-cyano-2-fluorobenzyl)oxy)pyridin-2-yl)-3-fluorobenzyl)-1-((1-ethyl-1H-imidazol-5-yl)methyl)-1H-benzo[d]imidazole-6-carboxylic acid]
- EC50 (GLP-1R): 0.36 nM
- Predicted Hepatic Clearance (Pred. Cl.) [1]: 6.25 mL/min/kg

SMILES: COCCn1c(Cc2ccc(-c3ccnc(OCc4ccc(C#N)cc4F)n3)c(F)c2)nc2c(F)cc(C(=O)O)cc21 [Example 558, 2-(4-(2-((4-cyano-2-fluorobenzyl)oxy)pyrimidin-4-yl)-3-fluorobenzyl)-4-fluoro-1-(2-methoxyethyl)-1H-benzo[d]imidazole-6-carboxylic acid]
- EC50 (GLP-1R): 22.4 nM
- Predicted Hepatic Clearance (Pred. Cl.) [1]: 4 mL/min/kg

SMILES: COCCn1c(Cc2ccc(-c3cccc(OCc4ccc(C#N)cc4F)n3)cc2C#CC2CCOCC2)nc2ccc(C(=O)O)cc21 [Example 438, 2-(4-(6-((4-cyano-2-fluorobenzyl)oxy)pyridin-2-yl)-2-((tetrahydro-2H-pyran-4-yl)ethynyl)benzyl)-1-(2-methoxyethyl)-1H-benzo[d]imidazole-6-carboxylic]
- EC50 (GLP-1R): 64.7 nM
- Predicted Hepatic Clearance (Pred. Cl.) [1]: 18.7 mL/min/kg

SMILES: N#CCC1(Cn2c(Cc3ccc(-c4cccc(OCc5ccc(C#N)cc5F)n4)cc3F)nc3ccc(C(=O)NS(=O)(=O)C4CC4)cc32)CC1 [Example 55, 2-(4-(6-((4-cyano-2-fluorobenzyl)oxy)pyridin-2-yl)-2-fluorobenzyl)-1-((1-(cyanomethyl)cyclopropyl)methyl)-N-(cyclopropylsulfonyl)-1H-benzo[d]imidazole-6-carboxamide]
- EC50 (GLP-1R): 3.4 nM
- Predicted Hepatic Clearance (Pred. Cl.) [1]: 4.33 mL/min/kg

SMILES: N#Cc1cc(F)c(COc2cccc(-c3ccc(Cc4nc5c(F)cc(C(=O)O)cc5n4C[C@@H]4CCO4)cc3F)n2)cc1F [Example 776]
- EC50 (GLP-1R): 26.9 nM
- Predicted Hepatic Clearance (Pred. Cl.) [1]: 3.17 mL/min/kg

SMILES: COCCn1c(Cc2ccc(-c3cccc(OCc4ccc(C#N)cc4F)n3)cc2F)nc2ccc(P(=O)(O)O)cc21 [Example 555, (2-(4-(6-((4-cyano-2-fluorobenzyl)oxy)pyridin-2-yl)-2-fluorobenzyl)-1-(2-methoxyethyl)-1H-benzo[d]imidazol-6-yl)phosphonic acid]
- EC50 (GLP-1R): 57.9 nM
- Predicted Hepatic Clearance (Pred. Cl.) [1]: 1.83 mL/min/kg

SMILES: O=C(O)c1cc(F)c2nc(Cc3cc(F)c(-c4nc(OCc5ccc(C(F)(F)F)cc5F)ccc4F)cc3F)n(C[C@@H]3CCO3)c2c1 [Example 781]
- EC50 (GLP-1R): 0.03 nM
- Predicted Hepatic Clearance (Pred. Cl.) [1]: 3.17 mL/min/kg

SMILES: COCCn1c(Cc2ccc(-c3nc(OCc4ccc(C#N)cc4F)ccc3C#N)cc2F)nc2ccc(C(=O)O)cc21 [Example 81, 2-(4-(3-cyano-6-((4-cyano-2-fluorobenzyl)oxy)pyridin-2-yl)-2-fluorobenzyl)-1-(2-methoxyethyl)-1H-benzo[d]imidazole-6-carboxylic acid]
- EC50 (GLP-1R): 291 nM
- Predicted Hepatic Clearance (Pred. Cl.) [1]: 10.7 mL/min/kg

SMILES: CCOC(=O)c1ccc2nc(Cc3cc(F)c(-c4cccc(OCc5ccc(C#N)cc5F)n4)cc3F)n(CCOC)c2c1 [Example 847, Ethyl 2-(4-(6-((4-cyano-2-fluorobenzyl)oxy)pyridin-2-yl)-2,5-difluorobenzyl)-1-(2-methoxyethyl)-1H-benzo[d]imidazole-6-carboxylate]
- EC50 (GLP-1R): 537 nM
- Predicted Hepatic Clearance (Pred. Cl.) [1]: 6 mL/min/kg

SMILES: COCCn1c(Cc2ccc(-c3cccc(OCc4cccc5c4OCO5)n3)cc2F)nc2ccc(C(=O)O)cc21 [Example 362, 2-(4-(6-(benzo[d][1,3]dioxol-4-ylmethoxy)pyridin-2-yl)-2-fluorobenzyl)-1-(2-methoxyethyl)-1H-benzo[d]imidazole-6-carboxylic acid]
- EC50 (GLP-1R): 21.8 nM
- Predicted Hepatic Clearance (Pred. Cl.) [1]: 16.2 mL/min/kg

SMILES: COCCn1c(Cc2ccc(-c3ccnc(OCc4ccc(C#N)cc4F)n3)cc2F)nc2ccc(C(=O)O)cc21 [Example 83, 2-(4-(2-((4-cyano-2-fluorobenzyl)oxy)pyrimidin-4-yl)-2-fluorobenzyl)-1-(2-methoxyethyl)-1H-benzo[d]imidazole-6-carboxylic acid]
- EC50 (GLP-1R): 29.3 nM
- Predicted Hepatic Clearance (Pred. Cl.) [1]: <1.83 mL/min/kg

SMILES: N#Cc1cc(F)c(COc2cccc(-c3cc(F)c(Cc4nc5c(F)cc(C(=O)O)cc5n4C[C@@H]4CCO4)cc3F)n2)cc1F [Example 796]
- EC50 (GLP-1R): 0.03 nM
- Predicted Hepatic Clearance (Pred. Cl.) [1]: 1.83 mL/min/kg

SMILES: COCCn1c(Cc2c(F)cc(-c3csnc3OCc3ccc(C#N)cc3F)cc2F)nc2ccc(C(=O)O)cc21 [Example 76, 2-(4-(3-((4-cyano-2-fluorobenzyl)oxy)isothiazol-4-yl)-2,6-difluorobenzyl)-1-(2-methoxyethyl)-1H-benzo[d]imidazole-6-carboxylic acid]
- EC50 (GLP-1R): 22.3 nM
- Predicted Hepatic Clearance (Pred. Cl.) [1]: 13.4 mL/min/kg

SMILES: O=C(O)c1ccc2nc(Cc3cc(F)c(-c4cccc(OCc5ccc(C(F)F)cc5F)n4)cc3F)n(Cc3ncco3)c2c1 [Example 608]
- EC50 (GLP-1R): 0.74 nM
- Predicted Hepatic Clearance (Pred. Cl.) [1]: 1.83 mL/min/kg

SMILES: N#Cc1ccc(COc2cccc(-c3cc(F)c(Cc4nc5ccc(C(=O)O)cc5n4CC4CCOCC4)cc3F)n2)c(F)c1 [Example 546, 2-(4-(6-((4-cyano-2-fluorobenzyl)oxy)pyridin-2-yl)-2,5-difluorobenzyl)-1-((tetrahydro-2H-pyran-4-yl)methyl)-1H-benzo[d]imidazole-carboxylic acid]
- EC50 (GLP-1R): 0.33 nM
- Predicted Hepatic Clearance (Pred. Cl.) [1]: 8.83 mL/min/kg

SMILES: COCCn1c(Cc2ccc(-c3cccc(OCc4cccc(OCC(F)F)c4)n3)cc2F)nc2ccc(C(=O)O)cc21 [Example 139, 2-(4-(6-((3-(2,2-difluoroethoxy)benzyl)oxy)pyridin-2-yl)-2-fluorobenzyl)-1-(2-methoxyethyl)-1H-benzo[d]imidazole-6-carboxylic acid]
- EC50 (GLP-1R): 26.4 nM
- Predicted Hepatic Clearance (Pred. Cl.) [1]: 7.17 mL/min/kg
